One experiment relates to gelatine plates. Kind of experiment: Evidence of bonding (skin model), gelatine plates. Conditions: 24 hrs at 87% atmospheric humidity, eluted with iPrOH in ultrasound bath. How it is done: 4% solutions of a mixture of two isomers of 2-(3,4-dihydroxy-5-oxo-2,5-di-hydrofuran-2-yl)-2-hydroxyethyl 2-(4-diethylamino-2-hydroxybenzoyl)benzo-ate, prepared in accordance with Example 1 or 2, abbreviated to DHAB below, in various solvent systems are prepared. 40 µl of each of these are applied to 2.5×7.5 cm gelatine plates and stored at 87% atmospheric humidity for 24 hrs. The plates are then eluted with 50 ml of iPrOH in an ultrasound bath for 5 min. The bonding to the gelatine is carried out by comparison with a corresponding standard solution: […]

The subject of another experiment is chicken skin. As to the kind of experiment: Evidence of bonding to chicken skin. Conditions: 2% in dimethylisosorbide, 2.66 μl/cm^2, exposure 16 hours, isopropanol extraction, photometric at 354 nm. How it is done: A) DHAB is dissolved to the extent of 2% in dimethylisosorbide. The solution is applied to chicken skin at an application rate of 2.66 μl/cm^2. After an exposure time of 16 hours, the samples are extracted with isopropanol in an ultrasound bath. The extracts are measured photometrically at 354 nm and compared with a 100% value (=application solution without use). The difference in the recovery compared with the 100% value corresponds here to the proportion of active compound bonded to the skin. For DHAB, a bound proportion of 76% is found, while the non-bonding comparative substance DHHB has, as expected, a low value of only 3%.

The next experiment deals with pig skin. Kind of experiment: Evidence of bonding to pig skin. Conditions: pig skin 24 h. Here is the method: • 2% solution of DHAB in Arlasolve DMI sample (A) and Pelemol BIP sample (B) • formulation containing 1% of DHAB sample (C) [=54-07-5-A, from Example V] • 2% solution of DHHB in Arlasolve DMI sample (D) and isopropyl myristate sample (E) formulations containing 0.84% of DHHB sample (F) [=54-07-5-B from Example V] and 0.84% of DHHB+0.37% of vitamin C sample (G) [=54-07-5-C from Example V]. • pig skin is cut to 2.5×7.5 cm and placed on Plexiglas specimen slides. Procedure:
50 µl of each of samples (A) to (G) are dripped onto the specimen slides with pig skin, spread using a plastic spatula, and the specimen slides are stored in a desiccator [87% atmospheric humidity through sat. KCl solution] at room temperature for 24 h. The specimen slides are then rinsed with 50 ml of isopropanol into volumetric flasks, treated in an ultrasound bath for 5 min, clear-filtered via syringe filters (cloudiness due to detached skin constituents and measured by UV spectrometer (400-250 nm; UVmax˜355 nm) (residue 1 to 7). The 100% comparative value used are 50 ml isopropanol solutions of in each case 50 µl of samples (A) to (G), which are likewise measured by UV spectrometer.

The test system of a further experiment is Human hair samples. As to the kind of experiment: Evidence of bonding to hair (SEM). Conditions: 0.2% solution in ethanol/water=80/20, 8 h, rinsed; comparison with DHHB. How it is done: Human hair samples are stirred with a 0.2% ethanolic active-compound solution of DHAB or DHHB (ethanol/water=80/20) for 8 h, subsequently rinsed with ethanol/water=80/20 and sent for SEM measurement (SEM=scanning electron microscope).

Another experiment has as its system prolyl-4-hydroxylase. Conditions: cited from earlier work.

Structures are written as SMILES.

On to `CCN(CC)c1ccc(C(=O)c2ccccc2C(=O)OC[C@@H](O)[C@H]2OC(=O)C(O)=C2O)c(O)c1` [DHAB, (R)-2-((R)-3,4-dihydroxy-5-oxo-2,5-dihydrofuran-2-yl)-2-hydroxyethyl 2-(4-diethylamino-2-hydroxybenzoyl)benzoate], for which the entries for the “Non-extractable content and therefore bonded to the skin” value with gelatine plates (4% solution in EG/water 94/6 on gelatine plate) and in the experiment with gelatine plates (4% solution in i-PrOH on gelatine plate) were 97.0% and 12.5%, respectively. In addition, the “bound proportion (proportion of active compound bonded to the skin)” value in the experiment with chicken skin worked out at 76%. Further, the “Bonding (non-extractable residue)” value in the experiment with pig skin (1% in W/O 54-07-5-A) was 91%; with pig skin (2% in Arlasolve DMI), 97%; in the experiment on pig skin (2% in Pelemol BIP), 89%. Also, the “active-compound adduction onto the hair cuticles (SEM picture)” value in the experiment with Human hair samples was “clearly increasingly evident”.

Turning to `CC(=O)Oc1ccccc1C(=O)OC[C@H](OC(=O)c1ccccc1OC(C)=O)[C@H]1OC(=O)C(O)=C1O` [O^5O^6-bis(2-acetoxybenzoyl) L-ascorbate], the “supporting the activity of the enzyme prolyl-4-hydroxylase” value in the experiment on prolyl-4-hydroxylase is reported as “capable of supporting the activity”. Moreover, the “affinity to the enzyme” value in the experiment on prolyl-4-hydroxylase (compared with the monosubstituted compound) is listed as “lower affinity”.

In the case of `CCCCCCOC(=O)c1ccccc1C(=O)c1ccc(N(CC)CC)cc1O` [DHHB, hexyl 2-(4-diethylamino-2-hydroxybenzoyl)benzoate], the “bound proportion (proportion of active compound bonded to the skin)” value with chicken skin is recorded as 3%. The figures for the “Bonding (non-extractable residue)” value in the experiment on pig skin (0.84% in W/O 54-07-5-B), in the experiment with pig skin (2% in Arlasolve DMI) and with pig skin (2% in isopropyl myristate) were 5%, 0% and 2%, respectively.

On to `CC(=O)Oc1ccccc1C(=O)OC[C@H](O)[C@H]1OC(=O)C(O)=C1O` [O^6-(2-acetoxybenzoyl) L-ascorbate], for which, in the experiment on prolyl-4-hydroxylase, the “supporting the activity of the enzyme prolyl-4-hydroxylase” value is “capable of supporting the activity”.

The values are drawn from patent US9023889B2, “Use of ascorbic acid derivatives for the functionalization of matrices” (Merck Patent GmbH, priority 2006, dated 2015).
